{"source": "patent US11572590B2", "about": "“Methods for evaluating tumor cell spheroids using 3D microfluidic cell culture device” (Dana-Farber Cancer Institute, Inc., priority 2017, dated 2023)", "assay_in_all_cases": "SelectScreen Kinase Profiling, single point inhibition and IC50 for off-target kinases", "format_in_all_cases": "biochemical", "key": {"off-target kinases [1]": {"biological_target": "off-target kinases (Homo sapiens, UniProt O96017)", "sequence (O96017 whole entry)": "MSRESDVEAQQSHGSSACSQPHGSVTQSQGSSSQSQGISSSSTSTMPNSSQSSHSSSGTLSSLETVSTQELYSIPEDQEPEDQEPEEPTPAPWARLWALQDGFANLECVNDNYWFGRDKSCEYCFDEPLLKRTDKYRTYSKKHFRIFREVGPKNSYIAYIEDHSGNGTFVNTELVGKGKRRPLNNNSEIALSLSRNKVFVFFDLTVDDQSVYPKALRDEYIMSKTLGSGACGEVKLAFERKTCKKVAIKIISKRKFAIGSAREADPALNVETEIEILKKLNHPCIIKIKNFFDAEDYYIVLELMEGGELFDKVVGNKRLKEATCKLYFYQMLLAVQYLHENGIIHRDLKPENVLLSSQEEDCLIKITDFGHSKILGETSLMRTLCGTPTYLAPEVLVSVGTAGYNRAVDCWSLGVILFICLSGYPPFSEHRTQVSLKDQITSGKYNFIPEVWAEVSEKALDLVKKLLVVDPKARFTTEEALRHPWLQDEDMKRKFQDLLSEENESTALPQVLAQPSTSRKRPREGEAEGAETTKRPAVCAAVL", "settings": "CHEK2 (CHK2), ZLYTE, ATP Km app"}, "off-target kinases [2]": {"biological_target": "T1, off-target kinases (Homo sapiens, UniProt Q06418)", "T1 sequence (Q06418 41-890)": "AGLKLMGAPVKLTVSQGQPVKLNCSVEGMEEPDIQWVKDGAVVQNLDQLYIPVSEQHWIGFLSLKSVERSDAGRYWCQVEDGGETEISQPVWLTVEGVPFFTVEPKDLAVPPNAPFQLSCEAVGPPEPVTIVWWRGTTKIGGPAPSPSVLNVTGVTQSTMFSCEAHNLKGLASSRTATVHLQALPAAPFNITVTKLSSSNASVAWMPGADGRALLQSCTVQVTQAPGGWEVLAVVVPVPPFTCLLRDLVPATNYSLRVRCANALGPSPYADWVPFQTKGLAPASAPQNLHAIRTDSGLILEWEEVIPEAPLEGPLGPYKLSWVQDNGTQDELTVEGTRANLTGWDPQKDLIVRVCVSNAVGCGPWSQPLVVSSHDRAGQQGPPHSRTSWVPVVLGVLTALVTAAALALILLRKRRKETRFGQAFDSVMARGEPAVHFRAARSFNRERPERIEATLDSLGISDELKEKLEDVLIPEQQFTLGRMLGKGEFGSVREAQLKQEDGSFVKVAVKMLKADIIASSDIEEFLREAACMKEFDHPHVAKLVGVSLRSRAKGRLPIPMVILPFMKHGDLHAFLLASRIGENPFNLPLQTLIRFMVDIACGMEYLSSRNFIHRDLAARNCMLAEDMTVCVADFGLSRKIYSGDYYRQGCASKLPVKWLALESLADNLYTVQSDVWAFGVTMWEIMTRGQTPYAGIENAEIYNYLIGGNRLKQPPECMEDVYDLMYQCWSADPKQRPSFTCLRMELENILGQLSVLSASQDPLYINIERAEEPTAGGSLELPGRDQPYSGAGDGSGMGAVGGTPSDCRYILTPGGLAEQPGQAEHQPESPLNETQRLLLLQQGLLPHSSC", "settings": "TYRO3 (RSE), ZLYTE, ATP Km app"}, "off-target kinases [3]": {"biological_target": "off-target kinases (Homo sapiens, UniProt P31749)", "sequence (P31749 whole entry)": "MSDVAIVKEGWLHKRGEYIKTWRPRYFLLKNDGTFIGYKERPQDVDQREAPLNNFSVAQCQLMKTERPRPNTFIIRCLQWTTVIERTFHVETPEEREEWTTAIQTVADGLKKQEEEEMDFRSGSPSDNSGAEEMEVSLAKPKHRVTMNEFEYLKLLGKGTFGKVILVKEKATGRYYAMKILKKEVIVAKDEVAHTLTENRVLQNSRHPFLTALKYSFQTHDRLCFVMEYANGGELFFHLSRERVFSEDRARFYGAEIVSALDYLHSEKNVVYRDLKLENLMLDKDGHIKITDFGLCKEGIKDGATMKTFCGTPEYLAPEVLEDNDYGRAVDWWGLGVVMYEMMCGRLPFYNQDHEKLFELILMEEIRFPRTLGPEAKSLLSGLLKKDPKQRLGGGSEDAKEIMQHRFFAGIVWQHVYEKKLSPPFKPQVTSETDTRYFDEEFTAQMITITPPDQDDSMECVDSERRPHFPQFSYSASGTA", "settings": "AKT1 (PKB alpha), ZLYTE, ATP Km app"}, "off-target kinases [4]": {"biological_target": "T2, off-target kinases (Homo sapiens, UniProt P52564)", "T2 sequence (P52564 1-334)": "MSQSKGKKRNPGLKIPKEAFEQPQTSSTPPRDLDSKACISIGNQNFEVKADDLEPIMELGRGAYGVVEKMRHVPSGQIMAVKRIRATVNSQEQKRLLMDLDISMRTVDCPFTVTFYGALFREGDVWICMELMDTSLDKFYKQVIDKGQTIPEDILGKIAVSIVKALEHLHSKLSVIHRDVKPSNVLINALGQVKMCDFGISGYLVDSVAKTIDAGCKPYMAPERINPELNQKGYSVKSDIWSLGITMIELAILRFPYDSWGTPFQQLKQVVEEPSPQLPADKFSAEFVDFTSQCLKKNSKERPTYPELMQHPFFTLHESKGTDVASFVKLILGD"}, "off-target kinases [5]": {"biological_target": "off-target kinases (Homo sapiens, UniProt P07332)", "sequence (P07332 whole entry)": "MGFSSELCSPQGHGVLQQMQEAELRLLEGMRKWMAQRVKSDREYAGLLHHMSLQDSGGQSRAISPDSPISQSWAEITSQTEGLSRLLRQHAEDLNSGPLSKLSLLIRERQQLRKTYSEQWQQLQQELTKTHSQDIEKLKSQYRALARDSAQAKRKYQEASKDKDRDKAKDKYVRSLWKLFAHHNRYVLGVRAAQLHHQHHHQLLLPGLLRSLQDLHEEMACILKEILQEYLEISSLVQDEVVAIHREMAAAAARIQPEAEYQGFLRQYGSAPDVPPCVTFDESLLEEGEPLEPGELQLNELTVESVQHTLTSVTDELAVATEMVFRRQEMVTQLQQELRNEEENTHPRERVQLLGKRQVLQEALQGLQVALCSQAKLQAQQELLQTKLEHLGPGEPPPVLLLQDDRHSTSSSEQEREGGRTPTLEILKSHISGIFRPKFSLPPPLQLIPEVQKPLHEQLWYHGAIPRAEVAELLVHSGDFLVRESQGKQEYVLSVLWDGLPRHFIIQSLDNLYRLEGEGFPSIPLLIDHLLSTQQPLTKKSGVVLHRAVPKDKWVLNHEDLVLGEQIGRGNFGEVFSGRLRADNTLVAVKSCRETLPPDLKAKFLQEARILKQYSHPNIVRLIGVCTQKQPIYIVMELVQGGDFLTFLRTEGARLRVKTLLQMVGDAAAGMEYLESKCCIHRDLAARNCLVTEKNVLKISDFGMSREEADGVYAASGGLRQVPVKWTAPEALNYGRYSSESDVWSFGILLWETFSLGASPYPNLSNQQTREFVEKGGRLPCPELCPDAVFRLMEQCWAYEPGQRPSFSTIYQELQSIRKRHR", "settings": "FES (FPS), ZLYTE, ATP Km app"}}, "note": "Like-named read-outs stand apart in the source and are kept apart here."}
{"smiles": "N#Cc1cc(-c2ncnc(Nc3ccc(N4CCN(C5COC5)CC4)cc3)n2)ccc1OC1CCOCC1", "note": "[Compound 1, 5-(4-((4-(4-(oxetan-3-yl)piperazin-1-yl)phenyl)amino)-1,3,5-triazin-2-yl)-2-((tetrahydro-2H-pyran-4-yl)oxy)benzonitrile]", "values": [{"measurement": "inhibition", "setting": "off-target kinases [1]; read-out: % Inhibition 1", "result": 27, "unit": "%"}, {"measurement": "inhibition", "setting": "off-target kinases [1]; read-out: % Inhibition 2", "result": 27, "unit": "%"}, {"measurement": "inhibition", "setting": "off-target kinases [1]; read-out: % Inhibition Avg", "result": 27, "unit": "%"}, {"measurement": "inhibition", "setting": "off-target kinases [2]; read-out: % Inhibition 1", "result": 42, "unit": "%"}, {"measurement": "inhibition", "setting": "off-target kinases [2]; read-out: % Inhibition 2", "result": 39, "unit": "%"}, {"measurement": "inhibition", "setting": "off-target kinases [2]; read-out: % Inhibition Avg", "result": 41, "unit": "%"}, {"measurement": "inhibition", "setting": "off-target kinases [3]; read-out: % Inhibition 1", "result": 1, "unit": "%"}, {"measurement": "inhibition", "setting": "off-target kinases [3]; read-out: % Inhibition 2", "result": 3, "unit": "%"}, {"measurement": "inhibition", "setting": "off-target kinases [3]; read-out: % Inhibition Avg", "result": 2, "unit": "%"}, {"measurement": "inhibition", "setting": "off-target kinases [4]; MAP2K6 (MKK6), LanthaScreen Binding, read-out: % Inhibition 2", "result": 4, "unit": "%"}, {"measurement": "inhibition", "setting": "off-target kinases [4]; MAP2K6 (MKK6), LanthaScreen Binding, read-out: % Inhibition Avg", "result": 1, "unit": "%"}, {"measurement": "inhibition", "setting": "off-target kinases [4]; MAP2K6 (MKK6), ZLYTE, ATP 100, read-out: % Inhibition 1", "result": 0, "unit": "%"}, {"measurement": "inhibition", "setting": "off-target kinases [4]; MAP2K6 (MKK6), ZLYTE, ATP 100, read-out: % Inhibition 2", "result": 19, "unit": "%"}, {"measurement": "inhibition", "setting": "off-target kinases [4]; MAP2K6 (MKK6), ZLYTE, ATP 100, read-out: % Inhibition Avg", "result": 9, "unit": "%"}, {"measurement": "inhibition", "setting": "off-target kinases [4]; read-out: % Inhibition 1", "result": -2, "unit": "%"}, {"measurement": "inhibition", "setting": "off-target kinases [5]; read-out: % Inhibition 1", "result": 9, "unit": "%"}, {"measurement": "inhibition", "setting": "off-target kinases [5]; read-out: % Inhibition 2", "result": 7, "unit": "%"}, {"measurement": "inhibition", "setting": "off-target kinases [5]; read-out: % Inhibition Avg", "result": 8, "unit": "%"}]}
